How the values were obtained:
Rev-Erb alpha [1] = target: T1, Rev-Erb alpha (Homo sapiens, UniProt P20393); experiment: M2H (mammalian two-hybrid) cellular activation assay of Rev-Erb alpha; assay type: cell-based; conditions: M2H assay, HEK293 cells, Gal4-Rev-Erb alpha / VP16-NCoR, luciferase reporter
T1 sequence (P20393 284-614 limits assumed): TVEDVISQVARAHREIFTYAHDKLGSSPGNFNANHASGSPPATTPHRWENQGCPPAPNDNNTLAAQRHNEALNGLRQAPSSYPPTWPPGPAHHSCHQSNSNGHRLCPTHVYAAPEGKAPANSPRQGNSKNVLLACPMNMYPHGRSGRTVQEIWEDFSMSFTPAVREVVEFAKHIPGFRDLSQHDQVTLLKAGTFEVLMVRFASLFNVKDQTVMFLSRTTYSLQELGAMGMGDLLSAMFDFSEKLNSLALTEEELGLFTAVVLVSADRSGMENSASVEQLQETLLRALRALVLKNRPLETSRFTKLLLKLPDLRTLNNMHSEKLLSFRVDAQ
In short: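 Six-point dose-response, 18 h, 37 °C, serum-free, in HEK293 cells carrying a Gal4-RE luciferase reporter with Gal4-Rev-Erb alpha or beta plus VP16-NCoR (corepressor interaction readout). EC50 and TOP activation (%) derived from luminescence across four experiments.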

Rev-Erb beta = target: T2, Rev-Erb beta (Homo sapiens, UniProt Q14995); experiment: M2H (mammalian two-hybrid) cellular activation assay of Rev-Erb beta; assay type: cell-based; conditions: HEK293 cells, Gal4-Rev-Erb beta / VP16-NCoR, luciferase reporter
T2 sequence (Q14995 369-579 limits assumed): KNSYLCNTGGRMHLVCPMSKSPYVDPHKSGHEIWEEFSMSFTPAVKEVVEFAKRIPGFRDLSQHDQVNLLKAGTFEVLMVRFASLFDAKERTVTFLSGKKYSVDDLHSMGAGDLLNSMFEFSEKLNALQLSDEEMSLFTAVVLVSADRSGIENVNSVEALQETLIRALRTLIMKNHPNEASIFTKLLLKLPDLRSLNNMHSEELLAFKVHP
Method: In this system, Rev-Erb alpha or Rev-Erb beta is expressed as a fusion to the Gal4 DNA-binding domain and the cofactor NCoR is expressed as a fusion to the activation domain of the Herpes Simplex Virus tegument protein VP16. These fusion proteins were included in plasmids at a concentration of 1 μg/μL. The pBS-SK+ vector was added to the preparation to adjust the DNA quantity to a fixed value for each condition.
The transfection mix (Jet-PEI protocol, Polyplus transfection) comprised: • 3 mL of Jet PEI Mix (180 μL Jet-Pei and NaCl at 150 mM) and • 3 mL of the DNA Mix or of the DNA Mix control (wherein the Gal4-Rev-Erb alpha plasmid was replaced by a pGal4phi plasmid).
DNA Mix comprised 1.2 mL of DNA and 1.8 mL of NaCl at 150 mM with, in a T225 flask: • 90 ng of Gal4-Rev-Erb alpha, or 90 ng of Gal4-Rev-Erb beta, • 4500 ng of VP16-NCoR, • 27000 ng of Gal4-RE and • 13410 ng of pBS-SK+. Cells
HEK293 cells were cultured in DMEM (Invitrogen 41965) comprising 10% FBS, P/S, 1% glutamine, 1% pyruvate (Invitrogen 11360) and 1% amino acids (Invitrogen 11140). Cells were then batch co-transfected with plasmid vectors (described in the table above) using as Jet-PEI as reagent (Polyplus) following the protocol specified below.
The 6 mL-transfection mix was transferred in a T225 flask. HEK293 cells were then added at a concentration of 12 Millions of cells for 54 mL of medium (DMEM comprising 10% FBS and 1% P/S). Cells incubated over-night at 37° C. and under 5% CO2.
This cell-based assay is performed using 384-well Greiner white plates (Reference 781080). After the incubation, cells were rinsed with PBS, trypsinized, centrifuged and resuspended in free-serum DMEM without phenol red (Invitrogen 31053). Cells were counted and adjusted to 0.5 Million per mL and plated at a concentration of 10,000 cells in 20 μL per well. They were incubated a minimum of 4 hours at 37° C. under 5% CO2. Cells were treated with 20 μL of the compound to analyze (concentration of 2× diluted in DMEM without FBS containing a maximum of 1% DMSO) and incubated over-night (18 hours, 37° C. and 5% CO2). Each compound has been tested at 6 different concentrations to depict a dose-effect allowing the measure of biochemical parameters such as EC50 and TOP activation (%).
Cells were incubated 30 minutes with 40 μL/well of Steady Glow (Promega) and luminescence was read with TECAN Genios Pro (100 ms/w). Four experiments were carried out for each compound.
Each compound has been tested at 6 different concentrations to depict a dose-effect allowing the measure of biochemical parameters such as EC50 and TOP activation (%).
The mammalian two-hybrid system (M2H) assay consists herein in studying the ability of compounds according to the invention to activate Rev-Erbalpha in cells and thus modulate the interaction with its corepressor. The interaction of the two proteins is assessed with the help of the Luciferase reporter gene. HEK293 cells were transfected with two gene constructions: Gal4-RE VP16-NCoR and Gal4-Rev-Erbalpha or with Gal4-RE, sVP16-NCoR and Gal4-Rev-Erb beta.
The ability of compounds according to the invention of activating Rev-Erbalpha alpha or Rev-Erb beta was assessed in the described cell-based assay. EC50 and TOP activation (%) were measured.

[2] = tested on: Diet Induced Obesity mice; experiment: In vivo evaluation in Diet Induced Obesity mice (high fat diet): glycemia, Hb1Ac; design: species or system C57BI/6J mice; conditions: diet induce obese mice, 45 mpk, once daily by gavage, 28 days
Method: Four week-old male C57BI/6J mice (from Janvier, France) were fed with an high fat diet (D12492, SSNIFF) for up to 10 weeks. All mice were housed 2 per cage under controlled conditions of humidity, lighting and temperature. At the end of the 10 week of diets, mice were randomized according to their body weight gain, body weight, and their non-fasting glycaemia. The treatments with compound of interest were administered once daily, by gavage (10 mL/kg) for 28 consecutive days. For oral administrations, the drugs were suspended in CMC 1%+Tween 80 0.1%.
As previously described animals were assayed for their non fasting glycaemia and biochemical parameters such as Hb1Ac.
At the end of the treatment period, animals were anesthetized with isoflurane and then sacrificed by cervical dislocation. The Student's t-test was used to test for statistical differences between drug and vehicle treatments when a single dose of drug was used.

Bmal1 = conditions: cell culture, dose-dependent; cited from earlier work
3T3-L1 cells = conditions: lipid accumulation and adipogenic genes; cited from earlier work
Rev-Erb alpha [3] = target: T3, Rev-Erb alpha (Homo sapiens, UniProt P20393); conditions: FRET assay; Meng Q J et al., 2008; cited from earlier work
T3 sequence (P20393 1-614): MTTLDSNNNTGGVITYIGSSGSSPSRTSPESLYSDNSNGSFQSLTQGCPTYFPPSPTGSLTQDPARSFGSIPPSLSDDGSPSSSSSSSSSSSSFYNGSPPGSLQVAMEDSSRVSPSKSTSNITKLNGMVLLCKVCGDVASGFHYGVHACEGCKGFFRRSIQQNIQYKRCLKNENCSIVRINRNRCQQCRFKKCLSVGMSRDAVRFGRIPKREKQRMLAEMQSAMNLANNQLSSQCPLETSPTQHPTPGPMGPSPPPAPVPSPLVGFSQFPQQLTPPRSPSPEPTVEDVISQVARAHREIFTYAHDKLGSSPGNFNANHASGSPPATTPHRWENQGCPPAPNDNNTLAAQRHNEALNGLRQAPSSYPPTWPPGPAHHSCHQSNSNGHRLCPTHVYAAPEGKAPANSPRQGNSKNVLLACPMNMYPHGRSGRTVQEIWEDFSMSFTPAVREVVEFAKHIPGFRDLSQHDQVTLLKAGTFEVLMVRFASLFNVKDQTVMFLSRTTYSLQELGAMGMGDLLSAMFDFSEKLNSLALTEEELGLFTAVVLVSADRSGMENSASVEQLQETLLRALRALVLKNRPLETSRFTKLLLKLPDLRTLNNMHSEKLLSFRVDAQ

[4] = high clearance and rapid metabolism; cited from earlier work
diet induced obese mice = conditions: Solt et al; cited from earlier work

Row | EC50 (Rev-Erb alpha [1]) [nM] | melting point [°C] | EC50 (Rev-Erb beta) [nM] | Structure (SMILES) | other results
1 | 100 to 1000 | 199.1 | 100 to 1000 | CC(C)(C)c1ccc(Oc2ccc3nnc(Cl)n3n2)c(-c2ccccc2)c1 [Cpd.4-19, 6-(5-tert-butyl-biphenyl-2-yloxy)-3-chloro-[1,2,4]triazolo[4,3-b]pyridazine] | –
2 | < 100 | 148 to 149 | 100 to 1000 | CN(C)c1ccc(Oc2ccc3nnc(Cl)n3n2)c(-c2ccccc2)c1 [Cpd.4-46, 3-chloro-6-(5-dimethylamino-biphenyl-2-yloxy)-[1,2,4]triazolo[4,3-b]pyridazine] | –
3 | 100 to 1000 | 72 to 77 | 100 to 1000 | CCNc1ccc(Oc2ccc3nnc(Cl)n3n2)c(-c2ccccc2)c1 [Cpd.4-54, 3-chloro-6-(5-ethylamino-biphenyl-2-yloxy)-[1,2,4]triazolo[4,3-b]pyridazine] | –
4 | 100 to 1000 | 85 to 88 | 100 to 1000 | CCCCNc1ccc(Oc2ccc3nnc(Cl)n3n2)c(-c2ccccc2)c1 [Cpd.4-58, 3-chloro-6-(5-butylamino-biphenyl-2-yloxy)-[1,2,4]triazolo[4,3-b]pyridazine] | –
5 | 1000 to 6000 | – | – | FC(F)(F)c1ccc(-c2cncnc2)c(Oc2ccc3nnc(Cl)n3n2)c1 [Cpd.4-99, 3-chloro-6-(2-(pyrimidin-5-yl)-5-(trifluoromethyl)phenoxy)-[1,2,4]triazolo[4,3-b]pyridazine] | Hb1Ac levels [2]: significantly reduced; non fasting blood glucose concentration [2]: significantly reduce
6 | – | – | – | CC(C)(C)OC(=O)CN(Cc1ccc(Cl)cc1)Cc1ccc([N+](=O)[O-])s1 [GSK4112] | Bmal1 expression (Bmal1): decreases Bmal1 expression; adipogenesis (3T3-L1 cells): induces adipogenesis; interaction of NCoR-derived peptide with Rev-Erb alpha (Rev-Erb alpha [3]): dose-dependently increasing the interaction; pharmacokinetic properties [4]: poor pharmacokinetic properties
7 | – | – | – | CCOC(=O)C1Cc2ccccc2CN1C(=O)c1ccc(SC)s1 (stereo not shown) [SR8278] | pharmacokinetic properties [4]: poor pharmacokinetic properties
8 | – | – | – | CCOC(=O)N1CCC(CN(Cc2ccc(Cl)cc2)Cc2ccc([N+](=O)[O-])s2)C1 (stereo not shown) [SR9009] | metabolic parameters (diet induced obese mice): improve the metabolic parameters
9 | – | – | – | CCCCCNC(=O)N1CCC(CN(Cc2ccc(Cl)cc2)Cc2ccc([N+](=O)[O-])s2)C1 (stereo not shown) [SR9011] | metabolic parameters (diet induced obese mice): improve the metabolic parameters

From patent US9586963B2 (GENFIT, priority 2011, dated 2017)
